Source: ChEMBL document CHEMBL3217638, “Synthetic modulators of the retinoic acid receptor-related orphan receptors” (Medchemcomm, 2013)

Biological target: T1, Nuclear receptor ROR-gamma (Homo sapiens, UniProt P51449)
T1 sequence (P51449 whole entry): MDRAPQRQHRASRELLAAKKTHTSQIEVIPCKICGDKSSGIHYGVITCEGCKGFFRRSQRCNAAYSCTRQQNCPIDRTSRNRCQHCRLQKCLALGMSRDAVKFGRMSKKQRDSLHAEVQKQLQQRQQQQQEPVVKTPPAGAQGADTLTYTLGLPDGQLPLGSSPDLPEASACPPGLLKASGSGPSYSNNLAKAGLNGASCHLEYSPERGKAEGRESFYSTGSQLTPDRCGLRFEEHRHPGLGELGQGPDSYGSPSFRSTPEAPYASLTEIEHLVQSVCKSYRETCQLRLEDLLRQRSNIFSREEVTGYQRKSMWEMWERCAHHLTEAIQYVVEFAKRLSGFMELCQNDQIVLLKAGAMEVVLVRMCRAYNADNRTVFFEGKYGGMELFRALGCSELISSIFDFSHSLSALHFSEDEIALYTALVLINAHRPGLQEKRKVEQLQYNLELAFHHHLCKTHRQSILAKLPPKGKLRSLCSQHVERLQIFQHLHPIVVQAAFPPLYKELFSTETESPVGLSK
Assay: Displacement of fluorescein-labeled 25-hydroxycholesterol from human N-terminal 6xHis-tagged ROR gamma LBD (residues 262 to 518) expressed in Escherichia coli BL21-CodonPlus(DE3)-RIL cells by fluorescence polarization assay

- IC50: 4 µM
Compound: C[C@H]1O[C@@H](O[C@H]2[C@@H](O)C[C@H](O[C@H]3[C@@H](O)C[C@H](O[C@H]4CC[C@@]5(C)[C@H](CC[C@@H]6[C@@H]5C[C@@H](O)[C@]5(C)[C@@H](C7=CC(=O)OC7)CC[C@]65O)C4)O[C@@H]3C)O[C@@H]2C)C[C@H](O)[C@@H]1O [DIGOXIN]
